ChEMBL document CHEMBL1268896, “Development of the next generation of HIV-1 integrase inhibitors: pyrazolone as a novel inhibitor scaffold” (Bioorg Med Chem Lett, 2010)

How the values were obtained:
[1] = target: T1, Human immunodeficiency virus type 1 integrase (Human immunodeficiency virus 1, UniProt Q7ZJM1); assay: Inhibition of HIV1 integrase strand transfer activity
[2] = target: T1, Human immunodeficiency virus type 1 integrase; assay: Inhibition of HIV1 integrase 3' processing activity

T1 sequence (Q7ZJM1 whole entry): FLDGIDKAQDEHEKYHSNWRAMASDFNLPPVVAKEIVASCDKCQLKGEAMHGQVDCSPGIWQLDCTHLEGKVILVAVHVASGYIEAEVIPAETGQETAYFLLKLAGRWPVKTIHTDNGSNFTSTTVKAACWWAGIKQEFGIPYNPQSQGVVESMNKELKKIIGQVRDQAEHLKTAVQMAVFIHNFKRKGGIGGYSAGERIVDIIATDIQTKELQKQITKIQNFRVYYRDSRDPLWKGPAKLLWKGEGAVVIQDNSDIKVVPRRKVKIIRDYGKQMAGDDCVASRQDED

SMILES | IC50 [1] [µM] | IC50 [2] [µM]
O=C1/C(=C\c2ccc(O)c(OCc3ccc(F)cc3)c2)C(C(F)(F)F)=NN1c1cccc(Br)c1 | 22 | > 100
COc1ccc(/C=C2\C(=O)N(c3cccc(Br)c3)N=C2C(=O)O)cc1OCc1ccc(F)cc1 | 19 | 55
COc1ccc(/C=C2\C(=O)N(c3cccc(Br)c3)N=C2C(F)(F)F)c(OC)c1OC | > 100 | > 100
COc1ccc(/C=C2\C(=O)N(c3cccc([N+](=O)[O-])c3)N=C2C(=O)O)cc1Cc1ccc(F)cc1 | 11 | 15
COc1ccc(/C=C2\C(=O)N(c3cccc([N+](=O)[O-])c3)N=C2C(F)(F)F)cc1OCc1ccc(F)cc1 | 19 | 52
COc1ccc(/C=C2\C(=O)N(c3ccccc3)N=C2C(F)(F)F)cc1OCc1ccc(F)cc1 | > 100 | > 100
COc1ccc(/C=C2\C(=O)N(c3ccc(Br)cc3)N=C2C(F)(F)F)cc1OCc1ccc(F)cc1 | 25 | 82
COc1ccc(/C=C2\C(=O)N(c3cccc(Br)c3)N=C2NC(=O)C(F)(F)F)cc1OCc1ccc(F)cc1 | > 100 | > 100
COc1cc(/C=C2\C(=O)N(c3cccc(Br)c3)N=C2C(F)(F)F)cc(OC)c1OC | 15 | 61
COc1ccc(/C=C2\C(=O)N(c3cccc(F)c3)N=C2C(F)(F)F)cc1OCc1ccc(F)cc1 | 60 | > 100
COc1ccc(/C=C2\C(=O)N(c3cccc([N+](=O)[O-])c3)N=C2C(=O)O)cc1OCc1ccc(F)cc1 | 14 | 60
COc1ccc(/C=C2\C(=O)N(c3cccc(Br)c3)N=C2C)cc1OCc1ccc(F)cc1 | > 100 | > 100
COc1ccc(/C=C2\C(=O)N(c3cccc(Br)c3)N=C2COC(C)=O)cc1OCc1ccc(F)cc1 | 57 | > 100
COc1ccc(/C=C2\C(=O)N(c3cccc(-c4ccccc4)c3)N=C2C(F)(F)F)cc1OCc1ccc(F)cc1 | 16 | > 100
COc1ccc(/C=C2\C(=O)N(c3cccc(Br)c3)N=C2C(F)(F)F)cc1OC | 34 | 89
COc1ccc(/C=C2\C(=O)N(c3cccc(Br)c3)N=C2OC(C)=O)cc1OCc1ccc(F)cc1 | 100 | > 100

SMILES | IC50 [1] [µM] | IC50 [2] [µM]
COc1ccc(/C=C2\C(=O)N(c3ccc(C(=O)O)cc3)N=C2C(F)(F)F)cc1OCc1ccc(F)cc1 | 41 | > 100
O=C(O)C1=NN(c2cccc([N+](=O)[O-])c2)C(=O)/C1=C\c1ccc(OCc2ccc(F)cc2)c(O)c1 | 3 | 21
CCC1=NN(c2cccc(Br)c2)C(=O)/C1=C\c1ccc(OC)c(OCc2ccc(F)cc2)c1 | > 100 | > 100
COc1ccc(/C=C2\C(=O)N(c3cc(Cl)cc(Cl)c3)N=C2C(F)(F)F)cc1OCc1ccc(F)cc1 | 12 | > 100
COc1ccc(/C=C2\C(=O)N(c3ccc(I)cc3)N=C2C(F)(F)F)cc1OCc1ccc(F)cc1 | 69 | > 100
O=C(O)C1=NN(c2cccc([N+](=O)[O-])c2)C(=O)/C1=C\c1ccc(O)c(OCc2ccc(F)cc2)c1 | 10 | 95
COc1ccc(/C=C2\C(=O)N(c3nc4ccccc4s3)N=C2C(F)(F)F)cc1OCc1ccc(F)cc1 | 27 | > 100
COc1ccc(/C=C2\C(=O)N(c3cccc(C)c3)N=C2C(F)(F)F)cc1OCc1ccc(F)cc1 | > 100 | > 100
COc1ccc(/C=C2\C(=O)N(c3cccc(Br)c3)N=C2C(F)(F)F)cc1OCc1ccc(F)cc1 | 40 | 83
COc1ccc(/C=C2\C(=O)N(c3ccc(NS(C)(=O)=O)cc3)N=C2C(F)(F)F)cc1OCc1ccc(F)cc1 | > 100 | > 100
CCC(=O)OC1=NN(c2cccc(Br)c2)C(=O)/C1=C\c1ccc(OC)c(OCc2ccc(F)cc2)c1 | 88 | > 100
COc1ccc(/C=C2\C(=O)N(c3cccc(Br)c3)N=C2C(F)(F)F)cc1Cc1ccc(F)cc1 | 11 | 21
COc1ccc(/C=C2\C(=O)N(c3cccc(Cl)c3)N=C2C(F)(F)F)cc1OCc1ccc(F)cc1 | 30 | 88
COc1ccc(/C=C2\C(=O)N(c3cccc(Br)c3)N=C2C(F)(F)F)cc1OCc1cccc(Cl)c1F | 30 | 50
COc1ccc(/C=C2\C(=O)N(c3cccc(I)c3)N=C2C(F)(F)F)cc1OCc1ccc(F)cc1 | 35 | > 100
COc1ccc(/C=C2\C(=O)N(c3cccc(C(F)(F)F)c3)N=C2C(F)(F)F)cc1OCc1ccc(F)cc1 | 24 | 90
